Measured values from ChEMBL document CHEMBL1136124, “Copper complex of hydroxyl-substituted triazamacrocyclic ligand and its antitumor activity” (2003).

Tests used:
HXO-RB44 cell line [1] = assay: In vitro antitumor activity of concentration of 10-6 mol.L-1 against HXO-RB44 cell line using MTT assay; type: functional, Homo sapiens; conditions: for inhibition: Homo sapiens
Bel-7402 [2] = assay: In vitro antitumor activity of compound at a concentration 10-4 mol.L-1 against BEL-7402 cell line using MTT assay; type: functional, Homo sapiens; conditions: for inhibition: Homo sapiens
HXO-RB44 cell line [3] = assay: In vitro antitumor activity of concentration of 10-5 mol.L-1 against HXO-RB44 cell line using MTT assay; type: functional, Homo sapiens; conditions: for inhibition: Homo sapiens
Bel-7402 [4] = assay: In vitro antitumor activity of concentration of 10-3 mol.L-1 against BEL-7402 cell line using MTT assay; type: functional, Homo sapiens; conditions: for inhibition: Homo sapiens
HXO-RB44 cell line [5] = assay: In vitro antitumor activity of concentration of 10-4 mol.L-1 against HXO-RB44 cell line using MTT assay; type: functional, Homo sapiens; conditions: for inhibition: Homo sapiens
Bel-7402 [6] = assay: In vitro antitumor activity of compound at a […] mol.L-1 against BEL-7402 cell line using MTT assay; type: functional, cell-based; conditions: Homo sapiens

Compound | Inhibition (HXO-RB44 cell line [1]) | Inhibition (Bel-7402 [2]) | Inhibition (HXO-RB44 cell line [3]) | Inhibition (Bel-7402 [4]) | Inhibition (HXO-RB44 cell line [5]) | inhibition (HXO-RB44 cell line [1]) | inhibition (Bel-7402 [6]) | inhibition (Bel-7402 [2]) | inhibition (HXO-RB44 cell line [3]) | inhibition (Bel-7402 [4]) | inhibition (HXO-RB44 cell line [5])
OC1CNCCNCCNC1 | 1% | 16% | 3% | 34% | 3% | – | – | – | – | – | –
COPPER | – | – | – | – | – | 0% | 2% | 3% | 3% | 81% | 5%
[1,4,7]Triazecan-9-ol copper complex | – | – | – | – | – | 2% | 11% | 47% | 13% | 97% | 64%
